The results in this text go back to patent US8426447B2, “Spiro-tricyclic ring compounds as beta-secretase modulators and methods of use” (Amgen Inc., priority 2008, dated 2013).

Each structure is given as a SMILES string.

Assay [1] concerns the target T1, BACE1 (Homo sapiens, UniProt P56817). As to the kind of experiment: In Vitro BACE Cell-based Assay (HEK cell assay): Aβ40 in conditioned medium of cells stably expressing Amyloid Precursor Protein, sandwich ELISA. The note with it: read-out: HEK cell assay. On the procedure:
In Vitro BACE Cell-based Assay
The cell-based assay measures inhibition or reduction of Aβ40 in conditioned medium of test compound treated cells expressing amyloid precursor protein.
Cells stably expressing Amyloid Precursor Protein (APP) were plated at a density of 40K cells/well in 96 well plates (Costar). The cells were cultivated for 24 hours at 37° C. and 5% CO2 in DMEM supplemented with 10% FBS. The test compounds were then added to cells in 10-point dose response concentrations with the starting concentration being either 100 μM or 10 μM. The compounds were diluted from stock solutions in DMSO and the final DMSO concentration of the test compounds on cells was 0.1%. After 24 h of incubation with the test compounds the supernatant conditioned media was collected and the Aβ 40 levels were determined using a sandwich ELISA. The IC50 of the compound was calculated from the percent of control or percent inhibition of Aβ 40 as a function of the concentration of the test compound.
The sandwich ELISA to detect Aβ 40 was performed in 96 well microtiter plates, which were pre-treated with goat anti-rabbit IgG (Pierce). The capture and detecting antibody pair that were used to detect Aβ 40 from cell supernatants were affinity purified pAb40 (Biosource) and biotinylated 6E10 (Signet Labs Inc.), respectively. The optimal concentration for the pAb40 antibody was 3 μg/ml in Superblock/TBS (Pierce) that was supplemented with 0.05% Tween 20 (Sigma).
Cellular supernatants were incubated with the capture antibody for 3 h at 4° C., followed by 3 wash steps in TBS-tween (0.05%). The detecting antibody incubation was for 2 h at 4° C., again followed by the wash steps as described previously. The final readout of the ELISA is Time-Resolved Fluorescence (counts per minute) using Delfia reagents Streptavidin-Europium and Enhancement solutions (Perkin Elmer) and the Victor 2 multilabel counter (Perkin Elmer).

Assay [2] addresses T1, BACE1. As to the kind of experiment: In Vitro Enzymatic BACE FRET (Fluorescence Resonance Energy Transfer) Assay. The format is biochemical. The settings on record: read-out: BACE1 FRET assay. Put shortly:
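One-hour incubation initiated by 50 nM quenched FRET peptide spanning the BACE cleavage site, in 0.05 M acetate (pH 4.2), 100 uM genapol, 10% DMSO final. Tris addition neutralizes pH to end the reaction before fluorescence measurement.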

Where [3] appears, read: Table II, Aβ40, 24 h incubation.
The mark [4] stands for this setting: HEK cell-based assay, Aβ40 in conditioned medium, IC50 class symbols.
Where [5] appears, read: in vitro BACE FRET enzyme assay, IC50 class symbols.

T1 sequence (P56817 46-501, species assumed): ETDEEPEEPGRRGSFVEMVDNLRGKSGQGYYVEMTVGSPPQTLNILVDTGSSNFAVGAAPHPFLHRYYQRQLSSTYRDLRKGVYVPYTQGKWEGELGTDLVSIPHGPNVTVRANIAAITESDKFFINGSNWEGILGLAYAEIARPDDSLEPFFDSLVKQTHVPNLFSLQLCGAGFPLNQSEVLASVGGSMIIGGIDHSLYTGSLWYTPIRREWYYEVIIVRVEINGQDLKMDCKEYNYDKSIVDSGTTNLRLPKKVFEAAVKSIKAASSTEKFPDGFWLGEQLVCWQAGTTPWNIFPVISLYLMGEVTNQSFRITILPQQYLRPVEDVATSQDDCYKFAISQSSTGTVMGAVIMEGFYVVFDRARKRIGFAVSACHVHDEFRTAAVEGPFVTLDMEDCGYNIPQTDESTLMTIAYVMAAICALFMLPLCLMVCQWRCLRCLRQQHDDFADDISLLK

As to `Cc1ccncc1-c1ccc2c(c1)[C@@]1(COC(N)=N1)c1cc(OCC(C)(C)C)ccc1O2` [Example 86, (4S)-2′-(2,2-dimethylpropoxy)-7′-(4-methyl-3-pyridinyl)spiro[1,3-oxazole-4,9′-xanthen]-2-amine], the IC50 at BACE1 [1] (setting [3]) was 0.1 to 1 µM; at BACE1 [2] (Table II), less than 0.1 µM.

For the molecule `CC1(C)CC(c2cc3c(cc2F)Oc2ccc(-c4cncnc4)cc2[C@@]32COC(N)=N2)=CC(=O)O1` [compound 524], the IC50 on BACE1 [1] (HEK cells) and on BACE1 [2] was less than 0.1 µM in each case.

Turning to `NC1=N[C@@]2(CO1)c1cc(-c3cccnc3)ccc1Oc1ccc(-c3csc(N4CCCC4)n3)cc12` [compound 624], the IC50 at BACE1 [1] (Table IV, class symbols) lay within 1 to 5 µM; on BACE1 [2] (Table IV, class symbols), 0.1 to 1 µM.

Regarding `CSc1ccc(-c2ccc3c(c2)[C@]2(COC(N)=N2)c2cc(OCC(C)(C)C)ccc2O3)cc1` [compound 787], the IC50 at BACE1 [1] is 1 to 5 µM; on BACE1 [2], less than 0.1 µM.

For `NC1=N[C@@]2(CO1)c1cc(-c3cccnc3)ccc1Oc1cnc(C3=CCOCC3)cc12` [compound 849], the IC50 on BACE1 [1] (Table IV, class symbols) is less than 0.1 µM; on BACE1 [2] (Table IV, class symbols), less than 0.1 µM.

With `CC(C)N1CC=C(c2ccc3c(c2)[C@]2(COC(N)=N2)c2cc(-c4cncnc4)ccc2O3)CC1` [compound 714], the figures for the IC50 on BACE1 [1] and at BACE1 [2] were less than 0.1 µM and 0.1 to 1 µM, respectively.

As to `NC1=N[C@@]2(CO1)c1cc(-c3ccc(F)cc3)ccc1Oc1ncc(C3=CCOCC3)cc12` [compound 583], the IC50 at BACE1 [1] (Table IV, class symbols) is less than 0.1 µM; at BACE1 [2] (Table IV, class symbols), less than 0.1 µM.

Regarding `CC(C)(F)COc1ccc2c(c1)[C@]1(COC(N)=N1)c1cc(-c3cncnc3)cnc1O2` [compound 176], the IC50 at BACE1 [1] (Table III, IC50's in uM ranges) was 0.1 to 1 µM; at BACE1 [2] (Table III, IC50's in uM ranges), less than 0.1 µM.

Take `CC1(C)C=C(c2cc(F)c3c(c2)[C@]2(COC(N)=N2)c2cc(-c4cncnc4)ccc2O3)CCO1` [compound 466]: the IC50 at BACE1 [1] (HEK cells) and on BACE1 [2] was less than 0.1 µM each time.

In the case of `COc1ccc2c(c1)[C@]1(COC(N)=N1)c1cc(NC(=O)c3ccccc3)ccc1O2` [compound 616], the IC50 at BACE1 [1] (Table IV, class symbols) lay within 1 to 5 µM; at BACE1 [2] (Table IV, class symbols), 1 to 5 µM.

As to `CC1(C)CN(c2cc(F)c3c(c2)[C@@]2(COC(N)=N2)c2cc(-c4cncnc4)ccc2O3)CCO1` [compound 506], the values for the IC50 on BACE1 [1] (HEK cells) and on BACE1 [2] were 1 to 5 µM and 0.1 to 1 µM, respectively.

For `COCC[C@@H]1CN(c2ccc3c(c2)[C@]2(COC(N)=N2)c2cc(-c4cccnc4)ccc2O3)CCO1` [compound 421], the IC50 on BACE1 [1] (HEK cells) and at BACE1 [2] was 0.1 to 1 µM throughout.

With `CC(C)(C)COc1ccc2c(c1)[C@]1(COC(N)=N1)c1cc(-c3cccnn3)ccc1O2` [compound 649], the IC50 at BACE1 [1] (Table IV, class symbols) was 0.1 to 1 µM; at BACE1 [2] (Table IV, class symbols), less than 0.1 µM.

Consider `COc1ncccc1-c1ccc2c(c1)[C@@]1(COC(N)=N1)c1cc(C#CC(C)(C)OC)cnc1O2` [compound 806], for which the IC50 on BACE1 [1] (Table IV, class symbols) is less than 0.1 µM; on BACE1 [2] (Table IV, class symbols), less than 0.1 µM.

Regarding `NC1=N[C@]2(CO1)c1cc(OC3COC3)ccc1Oc1ccc(-c3cncnc3)cc12` [compound 776], the IC50 at BACE1 [1] and at BACE1 [2] was 0.1 to 1 µM in each case.

As for `CC1(C)CN(c2ccc3c(c2)[C@]2(COC(N)=N2)c2cc(-c4cncnc4)ccc2O3)C1` [compound 561], the IC50 at BACE1 [1] (Table IV, class symbols) was less than 0.1 µM; at BACE1 [2] (Table IV, class symbols) it was less than 0.1 µM.

Regarding `NC1=N[C@]2(CO1)c1cc(C(=O)CCCO)ccc1Oc1ccc(-c3cccnc3)cc12` [compound 650], the IC50 at BACE1 [1] (Table IV, class symbols) is 0.1 to 1 µM; on BACE1 [2] (Table IV, class symbols), less than 0.1 µM.

Consider `CC(C)(C)COc1ccc2c(c1)[C@]1(COC(N)=N1)c1cc(-c3ccnnc3)ccc1O2` [compound 145], for which the IC50 on BACE1 [1] (Table III, IC50's in uM ranges) was 0.1 to 1 µM; at BACE1 [2] (Table III, IC50's in uM ranges) it was less than 0.1 µM.

For `CC1(COc2ccc3c(c2)[C@@]2(COC(N)=N2)c2cc(-c4ccccc4)cnc2O3)COC1` [compound 966, (5S)-7-((3-methyl-3-oxetanyl)methoxy)-3-phenylspiro[chromeno[2,3-b]pyridine-5,4′-[1,3]oxazol]-2′-amine], the IC50 at BACE1 [1] and on BACE1 [2] was less than 0.1 µM each time.

With `NC1=N[C@]2(CO1)c1cc(Br)ccc1Oc1ccc(-c3cncnc3)cc12` [compound 686], the IC50 on BACE1 [1] and on BACE1 [2] was 0.1 to 1 µM each time.

For the molecule `Cn1cc(-c2ccc3c(c2)[C@@]2(COC(N)=N2)c2cc(OCC(C)(C)C)ccc2O3)cn1` [Example 82, (4S)-2′-(2,2-dimethylpropoxy)-7′-(1-methyl-1H-pyrazol-4-yl)spiro[1,3-oxazole-4,9′-xanthen]-2-amine], the IC50 was 1 to 5 µM at BACE1 [1] (setting [3]) and 0.1 to 1 µM at BACE1 [2] (Table II).

Take `COC(C)(C)COc1cnc2c(c1)[C@@]1(COC(N)=N1)c1cc(-c3ccccc3)ccc1O2` [compound 349]: the IC50 on BACE1 [1] (setting [4]) was 1 to 5 µM; on BACE1 [2] (setting [5]), 0.1 to 1 µM.

As to `CC(C)c1nc(-c2ccc3c(c2)[C@@]2(COC(N)=N2)c2cc(OCC(C)(C)C)ccc2O3)cs1` [compound 832], the IC50 is 1 to 5 µM on BACE1 [1] (Table IV, class symbols) and 0.1 to 1 µM on BACE1 [2] (Table IV, class symbols).

Turning to `NC1=N[C@@]2(CO1)c1cc(-c3cccnc3F)ccc1Oc1ccc(C3CCOCC3)nc12` [compound 338], the IC50 on BACE1 [1] (setting [4]) and on BACE1 [2] (setting [5]) was less than 0.1 µM in each case.

For the molecule `COc1ccc(F)c(-c2ccc3c(c2)C2(COC(N)=N2)c2cc(OC)ccc2O3)c1` (stereo not drawn) [Example 15, 2′-(2-fluoro-5-methoxyphenyl)-7′-methoxyspiro[1,3-oxazole-4,9′-xanthen]-2-amine], the IC50 is greater than 5 µM at BACE1 [1] (Table 1, Aβ40, 24 h incubation) and 1 to 5 µM on BACE1 [2] (Table 1).

As to `COC(C)(C)CCc1ccc2c(c1)[C@]1(COC(N)=N1)c1cc(-c3cncnc3)ccc1O2` [Example 122, (R)-2′-(3-methoxy-3-methylbutyl)-7′-(pyrimidin-5-yl)-5H-spiro[oxazole-4,9′-xanthen]-2-amine], the IC50 on BACE1 [1] (Table III, IC50's in uM ranges) is less than 0.1 µM; on BACE1 [2] (Table III, IC50's in uM ranges), less than 0.1 µM.

For `COC(C)(C)COc1ccc2c(c1)[C@]1(COC(N)=N1)c1cc(C#CC3CC3)ccc1O2` [compound 982], the results for the IC50 on BACE1 [1] and at BACE1 [2] were 0.1 to 1 µM and less than 0.1 µM, respectively.

Take `NC1=N[C@@]2(CO1)c1cc(-c3cccnc3F)ccc1Oc1ncc(-c3ccncc3)cc12` [compound 403]: the IC50 on BACE1 [1] (setting [4]) and at BACE1 [2] (setting [5]) was less than 0.1 µM in each case.

Take `NC1=N[C@@]2(CO1)c1cc(-c3cccnc3)ccc1Oc1cnc(-c3cccnc3)cc12` [compound 902]: the IC50 at BACE1 [1] (Table IV, class symbols) was less than 0.1 µM; on BACE1 [2] (Table IV, class symbols), less than 0.1 µM.

Consider `NC1=N[C@@]2(CO1)c1cc(-c3ccccc3)ccc1Oc1ncc(N3CCOCC3)cc12` [compound 626], for which the IC50 was less than 0.1 µM on BACE1 [1] (Table IV, class symbols) and less than 0.1 µM on BACE1 [2] (Table IV, class symbols).

Turning to `COc1ccc2c(c1)[C@@]1(COC(N)=N1)c1cc(Br)cc(F)c1O2` [compound 378], the IC50 was greater than 5 µM at BACE1 [1] (setting [4]) and 1 to 5 µM at BACE1 [2] (setting [5]).

For the molecule `CC(C)Cn1cc(-c2ccc3c(c2)[C@]2(COC(N)=N2)c2cc(-c4cccnc4)ccc2O3)cn1` [compound 708], the IC50 at BACE1 [1] was 0.1 to 1 µM; on BACE1 [2], less than 0.1 µM.

As for `NC1=N[C@@]2(CO1)c1cc(-c3cncnc3)ccc1Oc1c(F)cc(OCC3CC3(F)F)cc12` (stereo partly drawn) [compound 507], the IC50 at BACE1 [1] (HEK cells) and on BACE1 [2] was less than 0.1 µM in each case.

With `COc1ccc(-c2ccc3c(c2)[C@@]2(COC(N)=N2)c2cc(OCC(C)(C)C)ccc2O3)cn1` [Example 87, (4S)-2′-(2,2-dimethylpropoxy)-7′-(6-methoxy-3-pyridinyl)spiro[1,3-oxazole-4,9′-xanthen]-2-amine], the IC50 at BACE1 [1] (setting [3]) lay within 1 to 5 µM; on BACE1 [2] (Table II) it was 0.1 to 1 µM.

Regarding `CC(C)(C)COc1ccc2c(c1)[C@]1(COC(N)=N1)c1cc(-c3cncnc3O)ccc1O2` [compound 884], the IC50 on BACE1 [1] (Table IV, class symbols) lay in the range of 1 to 5 µM; on BACE1 [2] (Table IV, class symbols), 0.1 to 1 µM.

With `C[C@@H]1CN(c2cc(F)c3c(c2)[C@]2(COC(N)=N2)c2cc(-c4cccnc4)ccc2O3)C[C@H](C)O1` [compound 483], the IC50 at BACE1 [1] (HEK cells) and on BACE1 [2] was less than 0.1 µM each time.

Regarding `CC1(C)CC(=O)N(c2ccc3c(c2)[C@]2(COC(N)=N2)c2cc(-c4cccnc4)ccc2O3)C1` [compound 749], the IC50 on BACE1 [1] and at BACE1 [2] was less than 0.1 µM throughout.

As to `Cn1cc(-c2ccc3c(c2)[C@]2(COC(N)=N2)c2cc(-c4ccc(F)nc4)ccc2O3)cn1` [compound 631], the IC50 at BACE1 [1] (Table IV, class symbols) was less than 0.1 µM; on BACE1 [2] (Table IV, class symbols) it was less than 0.1 µM.

Consider `CC(C)(C)COc1cnc2c(c1)[C@]1(COC(N)=N1)c1cc(-c3ccc(F)nc3)ccc1O2` [compound 470], for which the IC50 on BACE1 [1] (HEK cells) and at BACE1 [2] was less than 0.1 µM each time.
